Entries after “also recorded” stand apart in the source; their conditions may differ. Read-outs that look alike come from different tables or passages of the source.
Key:
5-HT1A receptor = target: T1, 5-HT1A receptor (Rattus norvegicus, UniProt P19327); assay: Functional 5-HT1A receptor [35S]GTPγS assay (agonist mode); type: biochemical; settings: [35S]GTPγS, rat hippocampus homogenate;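 also: male Sprague-Dawley rat hippocampal membranes incubated 90 min at 37 °C, bound label counted by scintillation after filtration, non-specific binding defined with 100 µM unlabeled GTPγS, one-site curve fit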
T1 construct: 15 μg/mL of hippocampus homogenate was incubated in triplicate with 0.8 nM; from tissue; host or cells: rat hippocampus homogenate
T1 sequence (P19327 1-422): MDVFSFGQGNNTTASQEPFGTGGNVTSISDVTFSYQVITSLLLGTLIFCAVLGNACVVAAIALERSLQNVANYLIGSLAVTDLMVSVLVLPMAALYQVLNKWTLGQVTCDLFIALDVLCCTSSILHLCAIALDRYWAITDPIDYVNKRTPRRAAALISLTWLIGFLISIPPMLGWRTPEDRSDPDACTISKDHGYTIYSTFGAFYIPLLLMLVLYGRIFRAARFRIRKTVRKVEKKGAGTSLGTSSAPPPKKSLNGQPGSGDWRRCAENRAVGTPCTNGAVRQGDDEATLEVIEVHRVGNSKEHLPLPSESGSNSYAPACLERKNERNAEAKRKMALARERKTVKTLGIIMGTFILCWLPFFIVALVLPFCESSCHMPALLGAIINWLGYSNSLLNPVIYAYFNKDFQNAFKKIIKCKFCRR

mice [1] = assay: Spontaneous locomotor activity; type: in vivo, mouse
mice [2] = assay: Chimney test (motor coordination); type: in vivo, mouse; settings: 30 mg/kg i.p., 60 min before the test
Description: (§1) The experiments were carried out, in the Experimental Medicine Center of Medical University of Lublin, on six-week-old naive male Swiss mice, weighing 24–30 g. The mice were housed in cages, five individuals per cage in an environmentally controlled rooms (ambient temperature 22 ± 1 °C; relative humidity 50–60%; 12 h light/dark cycle, lights on at 8:00). Standard laboratory food(LSM-Agropol-Motycz, Lublin, Poland) and filtered water were available ad libitum. All the experimental procedures were carried out, according to the National Institute of Health Guidelines for the Care and Use of Laboratory Animals and to the European Community Council Directive for the Care and Use of Laboratory Animals of 22 September 2010 (2010/63/EU) and approved by the Local Ethics Committee for Animal Experimentation in Lublin. The investigated compounds (Norbo-4, Norbo-8, Norbo-10, Norbo-14, Norbo-18 and Norbo-20) in all tests were administered intraperitoneally (i.p.), dissolved in dimethyl sulfoxide (DMSO, final concentration of 0.1%) and then diluted by aqueous solution of 0.5% methylcellulose (tylose) and injected 60 min before the tests. […] All compounds were given in a volume of 10 mL/kg to mice. The control animals received an equivalent volume of the solvent at the respective time before the tests. All the experiments were conducted in the light phase between 09.00 a.m. and 14.00 p.m. The experiments were performed by an observer unaware of the treatment administered. The effects of investigated compounds on motor coordination were evaluated in the rota-rod and chimney tests. In the first test, motor impairments were measured, defined as the inability to keep balance on a rotating rod (at constant speed of 18 rpm) for 1 min. In the second test, motor impairments were assessed by mouse inability to climb up the tube backwards (3 cm in inner diameter, 25 cm long) within 60 s. Before the tests, the animals were trained once a day for 3 days. The animals able to stay on the rotating rod or to leave the chimney for 60 s were approved for experiments.

[3] = test system: 5-HT2A receptors (5-HT-induced contractions in the rat ileum); assay: 5-HT-evoked contractions of isolated rat ileum; settings: 5-HT 10^−5 M; compounds 10^−8–10^−5 M
mice [4] = assay: Rota-rod test (motor coordination); type: in vivo, mouse; settings: 30 mg/kg i.p., 60 min before the test
Description: as §1

human 5-HT2C receptor = target: T2, human 5-HT2C receptor (Homo sapiens, UniProt P28335); assay: 5-HT2C competition binding assay ([3H]mesulergine, transfected cell membranes); settings: [3H]mesulergine, human 5-HT2C membranes; read-out: 5-HT2C Ki (95% CI)
T2 sequence (P28335 33-458): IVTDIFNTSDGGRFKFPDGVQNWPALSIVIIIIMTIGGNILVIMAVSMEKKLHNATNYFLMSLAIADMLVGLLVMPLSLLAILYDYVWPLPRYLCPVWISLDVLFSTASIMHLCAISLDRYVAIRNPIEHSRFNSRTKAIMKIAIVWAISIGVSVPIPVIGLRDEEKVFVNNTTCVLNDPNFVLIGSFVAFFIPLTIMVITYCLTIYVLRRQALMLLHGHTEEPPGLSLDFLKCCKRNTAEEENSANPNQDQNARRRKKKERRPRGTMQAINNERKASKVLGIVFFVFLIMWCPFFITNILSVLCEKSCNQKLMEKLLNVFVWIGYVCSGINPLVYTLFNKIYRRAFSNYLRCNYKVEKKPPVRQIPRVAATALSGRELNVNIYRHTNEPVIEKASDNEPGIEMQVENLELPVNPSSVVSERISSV

5-HT2A receptor = 5-HT2A receptor (Rattus norvegicus, UniProt P14842); assay: 5-HT2A competition binding assay ([3H]ketanserin, frontal cortex homogenates)
D2 receptor = target: T3, D2 receptor (Rattus norvegicus, UniProt P61169); assay: Functional D2 receptor [35S]GTPγS assay (antagonist mode vs dopamine; basal for agonism); type: biochemical; settings: against 40 µM dopamine, rat striatal homogenate; read-out: D2 receptor antagonistic activity IC50 (95% CI);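 also: [35S]GTPγS binding counted by scintillation after 60 min at 30 °C, nonspecific binding defined with 100 µM unlabeled GTPγS, inhibition curves fitted by one-site nonlinear regression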
T3 construct: 15μg/mL of striatal homogenate was incubated in triplicate; from tissue; host or cells: rat striatum homogenate

mice [5] = assay: Forced swim test (FST, Porsolt's test); type: in vivo, mouse; settings: 15 mg/kg i.p., 60 min before the test
Description: as §1, with “The experiment was carried out according to the method” for “The effects”, “of Porsolt et al.. Mice were individually placed in a glass cylinder (25 cm high; 10 cm in diameter) containing water maintained at 23–25 °C, and were left there for 6 min. The total duration of immobility was recorded during the last 4 min of a 6-min test session. A mouse was regarded as immobile when it remained floating” for “of investigated compounds”, “on” for “on motor coordination were evaluated in”, “the water, making only small movements” for “the rota-rod and chimney tests. In the first test, motor impairments were measured, defined as the inability”, “keep its head above” for “keep balance on a rotating rod (at constant speed of 18 rpm) for 1 min. In”, “the water.” for “the second test, motor impairments were assessed by mouse inability to climb up the tube backwards (3 cm in inner diameter, 25 cm long) within 60 s. Before the tests, the animals were trained once a day for 3 days. The animals able to stay on the rotating rod or to leave the chimney for 60 s were approved for experiments.”

[6] = 30 mg/kg i.p., after 6 min of observation
[7] = 30 mg/kg i.p., after 20 min of observation

5-HT2A receptor, sequence (P14842 whole entry): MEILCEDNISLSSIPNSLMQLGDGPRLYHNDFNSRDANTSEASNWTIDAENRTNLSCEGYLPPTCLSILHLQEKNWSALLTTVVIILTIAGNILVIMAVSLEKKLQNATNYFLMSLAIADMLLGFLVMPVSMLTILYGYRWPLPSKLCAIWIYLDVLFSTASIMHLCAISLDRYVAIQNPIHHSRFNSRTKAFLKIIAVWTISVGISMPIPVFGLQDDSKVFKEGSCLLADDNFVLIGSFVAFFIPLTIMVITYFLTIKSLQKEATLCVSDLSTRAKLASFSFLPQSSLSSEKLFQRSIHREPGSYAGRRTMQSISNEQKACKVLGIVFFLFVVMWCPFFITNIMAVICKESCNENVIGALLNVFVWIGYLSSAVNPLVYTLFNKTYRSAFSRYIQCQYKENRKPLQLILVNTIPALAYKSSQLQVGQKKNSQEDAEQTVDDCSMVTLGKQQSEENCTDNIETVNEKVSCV
T3 sequence (P61169 whole entry): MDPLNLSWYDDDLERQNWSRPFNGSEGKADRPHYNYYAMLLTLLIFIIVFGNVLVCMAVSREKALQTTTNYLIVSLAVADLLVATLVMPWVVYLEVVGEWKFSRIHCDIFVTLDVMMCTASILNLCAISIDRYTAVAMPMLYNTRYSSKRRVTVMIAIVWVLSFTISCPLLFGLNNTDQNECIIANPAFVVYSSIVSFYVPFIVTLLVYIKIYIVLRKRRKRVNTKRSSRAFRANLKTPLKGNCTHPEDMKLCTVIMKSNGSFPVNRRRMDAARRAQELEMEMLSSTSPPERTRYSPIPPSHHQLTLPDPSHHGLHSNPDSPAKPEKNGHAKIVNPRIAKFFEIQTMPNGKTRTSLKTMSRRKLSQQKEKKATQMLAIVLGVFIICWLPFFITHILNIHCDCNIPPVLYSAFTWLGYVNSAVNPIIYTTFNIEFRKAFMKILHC

Structure (SMILES)	5-HT1A Receptor G-Protein Stimulation pEC50 (5-HT1A receptor; ± SEM)	spontaneous locomotor activity (mice [1]; 15 mg/kg i.p., after 20 min of observation)	spontaneous locomotor activity (mice [1]; [6])	spontaneous locomotor activity (mice [1]; [7])	time in chimney (mice [2])	Emax, maximal inhibitory effect on 5-HT-induced contractions in the rat ileum [3]	time on rota-rod (mice [4])	Ki (human 5-HT2C receptor)	Ki (5-HT2A receptor; read-out: 5-HT2A Ki (95% CI))	IC50 (D2 receptor)	5-HT1A Receptor G-Protein Stimulation Emax (%) ± SEM (5-HT1A receptor)	EC50 (5-HT1A receptor; read-out: 5-HT1A Receptor G-Protein Stimulation EC50 (95% CI))	immobility time in FST (mice [5])	Ki (5-HT2A receptor; ± SEM, read-out: 5-HT2A pKi (converted))
O=C(NCCCN1CCN(c2ccc(Cl)c(Cl)c2)CC1)C1CC2C=CC1C2 (stereo not drawn) [Norbo-14, endo-N-(3-(4-(3,4-dichlorophenyl)piperazin-1-yl)propyl)bicyclo[2.2.1]hept-5-ene-2-carboxamide]	no activity	significant decrease in locomotor activity	significant decrease in locomotor activity	significant decrease in locomotor activity	significant increase of time in chimney; also recorded: disturbed the behavior of mice	22.57%	decreased also time on rota-rod; also recorded: impaired motor coordination	3640 nM	17.9 nM	41100 nM				
O=C(NCCCN1CCN(c2ccc(F)cc2)CC1)C1CC2C=CC1C2 (stereo not drawn) [Norbo-18, endo.-N-(3-(4-(4-fluorophenyl)piperazin-1-yl)propyl)bicyclo[2.2.1]hept-5-ene-2-carboxamide]			significant decrease in locomotor activity	significant decrease in locomotor activity	significant increase of time in chimney; also recorded: disturbed the behavior of mice	25.28%	decreased also time on rota-rod; also recorded: impaired motor coordination	212 nM		82900 nM	143 ± 5.1 ^&&& %	2320 nM	significant reduction in immobility time; also recorded: significant reduction of immobility time	18.6 nM
